{"source": "patent US10285961B2", "about": "“Organic acids as agents to dissolve calcium minerals in pathological calcification and uses thereof” (University of Houston System, priority 2014, dated 2019)", "key": {"[1]": {"experiment": "Exposure of fully grown COM crystals to HCA: optical microscopy and AFM surface roughness", "settings": "HCA (100 μg/mL) introduced at the end of crystallization period (3 days); optical micrographs", "method": "Crystallization was carried out in a 20-mL glass vial by dissolving NaCl in deionized water then adding 0.7 mL of 10 mM CaCl2 stock solution which was prepared in advance. The sample vial was place in an oven set to 60° C. for one hour to ensure the crystallization was performed at 60° C. Subsequently 0.7 mL of […] Na2C2O4 stock solution was added to the solution dropwise while the solution was stirred at 400 rpm. To investigate the effect of hydroxycitrate […] COM crystallization, prepared hydroxycitrate stock solution was added to the solution dropwise at the end of three day crystallization period. A clean glass slide (ca. 1.3×1.3 cm^2) was placed at the bottom of the glass vial to readily collect the crystals prior to placing the vial in the oven. Final solution composition was set to be 0.7 mM CaCl2: 0.7 mM Na2C2O4: 150 mM NaCl and the amount of deionized water was adjusted to set the final volume to 10 mL. Crystallization was performed at 60° C. for three days without agitation. The glass slide was removed from the solution and dried at room temperature prior to analysis.\nMorphology of COM crystals prepared in the absence and in the presence of OGMs were assessed and compared under optical microscope (Leica DM2500-M). Images were obtained in brightfield using reflectance. […]"}, "[2]": {"experiment": "In situ AFM of growth hillocks on the (010) face of COM crystals (step velocity)", "method": "(§1) Atomic force microscopy (AFM, Bruker Multimode 4) was used to study the COM crystal surface topography at a nanometer length scale. Samples were mounted on a disk covered with a thin layer of thermally curable epoxy (MasterBond EP21AOLV). The epoxy was partially cured in an oven for ca. 20 min at 60° C. prior to transferring the crystals obtained from bulk crystallization. The crystals were immobilized on the epoxy with the or [010] direction oriented normal to the specimen surface by placing the sample in an oven at 60° C. for two to three hours to completely cure the epoxy. The cantilevers used in this study were silicon nitride probes with gold reflex coating and a spring constant of 0.15 N/m (Olympus, TR800PSA). AFM was also employed to observe the kinetics of crystal growth in supersaturated calcium oxalate solutions by monitoring the velocity of step advancement on the (010) surface and (100) surface of COM crystals in real time. The experiment was designed to assess the effects of a range of concentration of hydroxycitrate on step growth using a fluid cell (Bruker, MTFML) to produce an environment that mimics in situ crystallization. The fluid cell had two ports for inlet and outlet flow to maintain constant supersaturation during AFM measurements. A silicon O-ring was used to ensure no liquid leakage would occur while solutions were being continuously replenished. A dual syringe pump (CHEMYX, Fusion 200) was used to flow the solutions into the fluid cell.\nHydroxycitrate has four stereoisomers, […], (2S,3R), (2S,3S), and (2R,3R) (FIG. 1). In order to investigate the interaction between hydroxycitrate and COM crystal surface at a molecular level, atomic force microscopy was utilized. The growth of hillocks by screw dislocation on the (010) face of COM crystals were measured in real time in the absence and in the presence of 0.1 μg/mL HCA (FIGS. 2A-2F). Growth hillocks on (010) face are bounded by {021} and {12-1} faces. […] The temporal advancement of steps (i.e., step velocity) of the growth hillock in the absence and in the presence of a wide range of concentration of HCA was measured (FIGS. 3A-3B). […] These phenomena are conventional modes of crystal growth inhibition. […] This phenomenon confirms the role of HCA as a dissolving agent."}, "[3]": {"set-up": "species or system human", "settings": "in vivo", "method": "In order for hydroxycitrate to have a direct effect on calcium oxalate stone formation, it must be excreted in the urine. As preliminary evidence of renal excretion in humans, over the counter hydroxycitrate supplements (trade name Super CitraMax) was administered to a normal healthy subject at a dose of 4.3 mmoles of hydroxycitrate two times a day (total daily dose of 8.6 mmoles) for three days. The standard dose recommended by the manufacturer is 12.9 mmoles per day. On the third day a 24 hour urine collection was performed. Hydroxycitrate excretion was measured using ion chromatography. […] Peak 1 is urine citrate, peak 2 is hydroxycitrate. Using a standard curve created using a high purity hydroxycitrate standard, hydroxycitrate excretion was calculated to be 1.28 mmoles per day. Thus, approximately 15% of the oral hydroxycitrate dose was excreted in the urine."}, "[4]": {"experiment": "In situ AFM of growth hillocks on the (100) surface of COM crystals", "method": "as §1, with “The experiment was designed to assess the effects of a range of concentration of hydroxycitrate on step growth using a fluid cell (Bruker, MTFML) to produce an environment that mimics in situ crystallization. The fluid cell had two ports for inlet and outlet flow to maintain constant supersaturation during AFM measurements. A silicon O-ring was used to ensure no liquid leakage would occur while solutions were being continuously replenished. A dual syringe pump (CHEMYX, Fusion 200) was used to flow the solutions into the fluid cell.” left out\nThe interaction between hydroxycitrate and the (100) surface of COM crystals was also observed using atomic force microscopy. The growth of hillocks by screw dislocation on the (100) surface of COM crystals were measured in real time in the absence and in the presence of 0.25 μg/mL HCA (FIGS. 4A-4F). […]"}, "[5]": {"experiment": "Upper limit of metastability of urine from patients with kidney stones", "set-up": "species or system human", "settings": "for inhibition: calcium oxalate molar product at the point of crystallization: 8 urine samples, 37° C. for 4 hours", "method": "The crystal inhibition activity of hydroxycitrate in human urine was determined using measurement of upper limit of metastability. For this experiment, 8 urine samples from patients with kidney stones were used. The urine was either spiked with a known amount of an inhibitor or spiked with saline as control. Ten aliquots of each urine sample were added to the wells of a microtiter plate and increasing amounts of oxalate was added. The plates were incubated at 37° C. for 4 hours and then turbidity was measured using an enzyme-linked immunosorbent assay (ELISA) plate reader. The well with the lowest amount of oxalate in which increased turbidity is noted is considered the crystallization point. Multiplying the calcium concentration of the urine and the oxalate concentration (original oxalate plus the amount of oxalate added) at the point of crystallization provides a rough measure of saturation at the point of crystallization.\nThe upper limit of metastability assay was also used to compare the inhibitory activity of hydroxycitrate to that of other tricarboxyllic acids: citrate, isocitrate, and tricarballylate. […] Each of tricarboxyllic acids was added to urine samples from stone forming patients to provide a final concentration of 2 mM. The data are expressed as the increase of the calcium oxalate molar product at crystallization compared to the control urine sample without any inhibitor added."}, "[6]": {"experiment": "Calcium ion selective electrode (ISE) measurement of COM crystallization kinetics", "settings": "synthetic versus extracted hydroxycitrate, slope of free calcium ion depletion relative to control", "method": "A calcium ion selective electrode (ISE, ThermoScientific with Orion 9720BNWP Ionplus® electrode) was used to measure the effect of organic growth modifiers (OGMs) on the kinetics of COM crystallization which measures the concentration of free calcium ions in solution. Samples were prepared in the similar manner as COM bulk crystallization. Final solution composition was set to be 0.5 mM CaCl2: 0.5 mM Na2C2O4: 150 mM NaCl and the measurements were performed at room temperature. During ISE measurements, the stir rate was adjusted to 1200 rpm to minimize the induction time for nucleation. OGM efficacy was measured by calculating the temporal depletion of calcium ion concentration (ppm range). The data was normalized by subtracting the concentration of the initial time point from each time point. The rate of depletion was calculated by measuring the initial slope of the crystal growth curve. The efficacy of synthetic and extracted hydroxycitrate was assessed using the percent inhibition, which was calculated by comparing the reduced slopes for each OGM relative to that of the control (i.e., absence of OGM). Prior to ISE measurements, the electrode was calibrated using a standard calcium solution (0.1 M, Orion Ion Plus), which was diluted with deionized water to three concentrations: 10^−4, 10^−3 and 10^−2 M. The ionic strength of each solution was adjusted using a standard solution (ISA, Thermo Scientific), which was added in a 1:50 volume ratio of ISA-to-standard.\nAdditionally, the inhibitory efficacy of synthetic and extracted HCA was observed. An ion selective electrode measures the free calcium ion in the solution in the course of experiments. The efficacy of both HCA molecules was measured by calculating the temporal depletion of free calcium ion concentration in COM growth solutions. The data was normalized by subtracting the concentration of the initial time point from all time points. The rate of depletion was calculated by measuring the initial slope of the crystal growth curve. The efficacy of the synthetic and extracted HCA was assessed using the percent inhibition, which was calculated by comparing the slopes for each molecule relative to that of the control (i.e., in the absence of HCA)."}, "[7]": {"settings": "2 mM final concentration, comparison of tricarboxylic acids"}}, "note": "“Also recorded” adds a separate entry of the source.", "data": [{"compound": "O=C(O)CC(O)(C(=O)O)C(O)C(=O)O", "note": "(stereo not shown) [HCA, hydroxycitrate]", "values": [{"measurement": "overall crystal morphology", "setting": "[1]", "value": "remained the same as that of the control; also recorded: maintained the same overall morphology"}, {"measurement": "surface features of COM crystal", "setting": "[2]; 0.1 μg/mL HCA", "value": "signs of dissolution; also recorded: dissolves the COM crystal surface"}, {"measurement": "step velocity of growth hillocks", "setting": "[2]; <021> and <12-1> directions, low concentration of HCA (<0.06 μg/mL)", "value": "decrease; also recorded: slightly decreases"}, {"measurement": "step velocity of growth hillocks", "setting": "[2]; high concentration of HCA (>0.15 μg/mL)", "value": "nearly zero; also recorded: ceases to zero"}, {"measurement": "step velocity of growth hillocks", "setting": "[2]; intermediate concentration (0.06 μg/mL<CHCA<0.15 μg/mL)", "value": "negative velocity; also recorded: negative values"}, {"measurement": "fraction of the oral hydroxycitrate dose excreted in the urine", "setting": "[3]", "value": "approximately 15%"}, {"measurement": "surface features of COM crystal", "setting": "[4]; 0.1 μg/mL HCA as printed", "value": "dissolves the COM crystal surface"}, {"measurement": "surface features of COM crystal", "setting": "[4]; 0.25 μg/mL HCA", "value": "etch pits start to form at step edges; also recorded: rapid formation of etch pits at the edge of steps"}, {"measurement": "inhibition: calcium oxalate molar product at the point of crystallization", "setting": "[5]; 1 mM final concentration", "value": "greater inhibition than the control urine"}, {"measurement": "inhibition: calcium oxalate molar product at the point of crystallization", "setting": "[5]; 2 mM final concentration", "value": "greater inhibition than the 1 mM hydroxycitrate"}, {"measurement": "increase of the calcium oxalate molar product at crystallization compared to the control urine", "setting": "[5]; [7]", "value": "higher levels of inhibition compared to the other inhibitors"}]}, {"compound": "O.O=C([O-])CC(O)(C(=O)[O-])C(O)C(=O)[O-].[K+].[K+].[K+]", "note": "(stereo not shown) [synthetic HCA, potassium hydroxycitrate tribasic monohydrate]", "values": [{"measurement": "efficacy (percent inhibition) on COM crystallization", "setting": "[6]; listed as sHCA, monohydrate", "value": "comparable effect"}, {"measurement": "efficacy (percent inhibition) on COM crystallization", "setting": "[6]; monohydrate", "value": "comparable"}]}, {"compound": "O=C(O)CC(CC(=O)O)C(=O)O", "note": "[tricarballylate, reference compound]", "values": [{"measurement": "difference of inhibition versus hydroxycitrate", "setting": "[5]; [7]", "value": "reached statistical significance"}]}, {"compound": "(−)-Hydroxycitric acid calcium salt [extracted HCA]", "values": [{"measurement": "efficacy (percent inhibition) on COM crystallization", "setting": "[6]; calcium salt", "value": "comparable"}, {"measurement": "efficacy (percent inhibition) on COM crystallization", "setting": "[6]; listed as cHCA, calcium salt", "value": "comparable effect"}]}]}
